Three molecules from patent US10918648B2, “Estrogen receptor modulator combinations” (The Regents of the University of California, priority 2016, dated 2021) can be followed below.

The subject of one assay is A549 NSCLC cells. In words: NSCLC cell proliferation in vitro (MTS assay). Type of assay: cell-based, human. The settings on record: 72 hours; for IC50: MTS assay. (In general: Tetrazolium assays rely on reduction of a dye to a coloured formazan, in cell work by metabolically active cells.)
Another assay relates to H1975 NSCLC cells. Description: NSCLC cell proliferation in vitro (MTS assay). Format: cell-based, human. The following applies: 72 hours. How it is done: (§1) Cell culture: Human breast and non-small cell lung cancer cells (MCF7, ZR75-1, MDAMB231, A549, H23, H1975, […]) were from ATCC. MCF7-HER2 were a kind gift of Dr. Dennis Slamon (23). Cell lines were routinely maintained in RPMI 1640 or DMEM medium with 10% fetal bovine serum (FBS) (Sigma-Aldrich) and 1% Antibiotic-Antimycotic solution 100× (Mediatech, Herndon, Va.). When indicated, for estrogen-free conditions, media was changed 48 h before experiments to phenol-red free RPMI 1640/DMEM with 1% dextran-coated, charcoal-treated (DCC)-FBS (24,25). Otherwise experiments were performed in phenol-red free RPMI 1640/DMEM medium with 5% DCC-FBS.
(§2) Cell proliferation assays: breast and lung tumor cells (between […]) were plated in 96 well plates using their respective medium with 10% FBS. For experiments using estradiol-17β, cells were rinsed with PBS and incubated with phenol redfree medium with 1% DCC-FBS for 48 hours as described before (24,25). Cells were then treated with different concentrations of SERDs ranging between 0.0001-100 μM. […] Cell counts and viability tests (Trypan blue) were done every 24 hr for 3 days. After 72 hr, proliferation was assessed with the MTS Assay CELLTITER 96® Aqueous Cell Proliferation Assay (Promega) or the Cell Proliferation ELISA, BrdU colorimetric assay (Roche). For the MTS, the absorbance of the formazan product was measured at 490 nanometer using the iMARK microplate reader from BIORAD. The BrdU ELISA assay is based on detection of BrdU incorporated into the genomic DNA of proliferating cells and an anti-BrdU antibody, the reaction product was quantified by measuring the absorbance at 370 nanometers using iMARK microplate reader from BIORAD. Cell numbers were also assessed initially by cell counts to confirm MTS/BrdU data. Experiments were done at least three times to confirm data.

In a further assay the test system is H2122 NSCLC cells. Description: NSCLC cell proliferation in vitro (MTS assay). The following applies: 72 hours. Type of assay: cell-based, human. Here is the method:
as §1, §2

The next assay concerns the target T1, estrogen receptor-alpha (Homo sapiens, UniProt P03372).
T1 construct: MCF-7 breast cancer cells with high expression of ERα protein were treated with; endogenous in cells; host or cells: MCF-7 human breast cancer cells
T1 sequence (P03372 1-595): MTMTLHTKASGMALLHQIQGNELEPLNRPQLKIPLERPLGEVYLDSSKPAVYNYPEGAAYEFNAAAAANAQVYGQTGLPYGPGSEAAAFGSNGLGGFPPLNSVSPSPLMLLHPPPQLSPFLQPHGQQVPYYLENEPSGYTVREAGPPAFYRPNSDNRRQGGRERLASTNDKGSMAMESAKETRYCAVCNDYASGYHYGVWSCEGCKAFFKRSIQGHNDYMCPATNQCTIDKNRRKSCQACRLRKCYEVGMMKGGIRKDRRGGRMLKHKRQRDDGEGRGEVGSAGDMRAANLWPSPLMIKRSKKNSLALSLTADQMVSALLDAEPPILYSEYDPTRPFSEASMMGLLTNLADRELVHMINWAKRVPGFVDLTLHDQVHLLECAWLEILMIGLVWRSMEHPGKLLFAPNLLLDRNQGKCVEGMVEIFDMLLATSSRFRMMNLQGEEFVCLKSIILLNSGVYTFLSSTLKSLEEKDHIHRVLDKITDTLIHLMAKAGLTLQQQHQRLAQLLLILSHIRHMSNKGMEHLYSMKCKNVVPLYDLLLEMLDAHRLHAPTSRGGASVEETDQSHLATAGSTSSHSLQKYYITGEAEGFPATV
Description: ER down-regulation, Western immunoblot of ERα protein in MCF-7 cells. Type of assay: cell-based. The settings on record: for estrogen receptor-alpha expression (ERα protein levels, Western immunoblot): 1 μM or 10 μM, 48 hrs, in the presence of 1 nM estradiol, FIG. 3A. Here is the method:
MCF-7 breast cancer cells were maintained in estrogen-free conditions 48 h before experiments as described above. Cells were then incubated with vehicle control or either 1 μM or 10 μM antiestrogens in the presence of 1 nM estradiol-1713 for 48 hrs. After lysis, total cell proteins were resolved by 4-15% SDS-PAGE, transferred to polyvinylidene difluoride membranes and probed with mouse monoclonal antibody directed against estrogen receptor-alpha (Assay Designs, #SRA1010). Membranes were stripped and re-probed with Ribosomal Protein L13A (Santa Cruz Biotechnology, C11) as a loading control (45).
Fulvestrant (Faslodex®) has been characterized as a selective ERα downregulator and a pure anti-estrogen. Fulvestrant inhibits the transcriptional response to estrogen stimulation and induces the degradation of estrogen receptor proteins (46,47). […] One problem with fulvestrant is that the drug requires intramuscular injection and may not achieve optimal antitumor effects due to the limited doses that can be administered by this drug delivery method. […] MCF-7 breast cancer cells with high expression of ERα protein were treated with estradiol-170 and either 1 μM or 10 μM concentrations of JD128 and JD140 for 48 hours. […] MCF-7 breast cancer cells were estrogen-deprived for 48 hrs, then treated with 1 nM estradiol-170 (E2) or antiestrogens JD128 (128) or JD140 (140) at 1 μM or 10 μM concentrations in the presence of 1 nM estradiol-170. After 48 hrs, PAGE and immunoblotting was performed with antibody directed to anti-ERα (SRA1010) and anti-RPL13A for a loading control.
ER down-regulation: To determine if selected compounds can down-regulate ER protein, we treated cells for 24-48 hrs in vitro with candidate compounds at varying doses. Then, cells were disrupted and prepared for PAGE and Western immunoblots using anti-ERα antibodies (see FIG. 6A). […] Those ERDs with optimal activity in down-regulating ER were investigated further in the chemistry laboratory to further refine and develop such agents. […]
In general terms: A western blot detects proteins with antibodies after separation by electrophoresis.

[1] abbreviates: in the presence of 1 μM abemaciclib, 5% DCC-FBS, read-out: IC50 of SERD for inhibition of NSCLC cell proliferation, A549.
The mark [2] stands for this setting: in the presence of 1 μM palbociclib, 5% DCC-FBS, read-out: IC50 of SERD for inhibition of NSCLC cell proliferation, A549.
The mark [3] stands for this setting: Homo sapiens, NCI-H1975, SERD alone, estrogen-depleted phenol red-free medium with 5% DCC-FBS, read-out: IC50 for inhibition of NSCLC cell proliferation, H1975.
Where [4] appears, read: in the presence of 1 μM palbociclib, 5% DCC-FBS, read-out: IC50 of SERD for inhibition of NSCLC cell proliferation, H1975.
Setting [5] is: Homo sapiens, NCI-H2122, SERD alone, estrogen-depleted phenol red-free medium with 5% DCC-FBS, read-out: IC50 for inhibition of NSCLC cell proliferation, H2122.
Setting [6] is: in the presence of 1 μM abemaciclib, 5% DCC-FBS, read-out: IC50 of SERD for inhibition of NSCLC cell proliferation, H2122.
Setting [7] is: in the presence of 1 μM palbociclib, 5% DCC-FBS, read-out: IC50 of SERD for inhibition of NSCLC cell proliferation, H2122.
The mark [8] stands for this setting: Homo sapiens, A549, SERD alone, estrogen-depleted phenol red-free medium with 5% DCC-FBS, read-out: IC50 for inhibition of NSCLC cell proliferation, A549.

Like-named read-outs stand apart in the source and are kept apart here.

Turning to `C[C@]12C[C@H](Oc3ccc(N)cc3)[C@@H]3c4ccc(O)cc4CC[C@H]3[C@@H]1CC[C@@H]2O` [JD105, (8S,9S,11S,13S,14S,17S)-11-(4-aminophenoxy)-13-methyl-7,8,9,11,12,13,14,15,16,17-decahydro-6H-cyclopenta[a]phenanthrene-3,17-diol], the IC50 is 0.41 µM in the assay with A549 NSCLC cells (setting [1]); 2.57 µM in the assay with A549 NSCLC cells (setting [2]); 4.5 µM with H1975 NSCLC cells (setting [3]); 1.06 µM in the assay with H1975 NSCLC cells (in the presence of 1 μM abemaciclib, 5% DCC-FBS, read-out: IC50 of SERD for inhibition of NSCLC cell proliferation, H1975); 4.78 µM in the assay on H1975 NSCLC cells (setting [4]); 3.83 µM in the assay with H2122 NSCLC cells (setting [5]). Moreover, the IC50 in the assay on H2122 NSCLC cells (setting [6]) turned out to be 1.48 µM; with H2122 NSCLC cells (setting [7]), 4.2 µM. In addition, the “ER protein levels (Western immunoblot)” value on estrogen receptor-alpha (24 hours, 10, 100 and 1000 nM, FIG. 6A) is reported as “reduces ER protein levels”.
Turning to `C[C@]12C[C@H](Oc3ccc(N)c(C(F)(F)F)c3)[C@@H]3c4ccc(O)cc4CC[C@H]3[C@@H]1CC[C@@H]2O` [JD128, (8S,9S,11S,13S,14S,17S)-11-(4-Amino-3-(trifluoromethyl)phenoxy)-13-methyl-7,8,9,11,12,13,14,15,16,17-decahydro-6H-cyclopenta[a]phenanthrene-3,17-diol], the IC50 in the assay with A549 NSCLC cells (setting [8]) turned out to be 1.09 µM; with A549 NSCLC cells (setting [1]), 0.66 µM; in the assay on A549 NSCLC cells (setting [2]), 1.34 µM; in the assay on H1975 NSCLC cells (setting [4]) it was 12.4 µM; in the assay on H2122 NSCLC cells (setting [5]) it was 1.31 µM; in the assay on H2122 NSCLC cells (setting [6]), 0.23 µM. In the assay on H2122 NSCLC cells (setting [7]), the IC50 came to 0.96 µM. In addition, on estrogen receptor-alpha, the “estrogen receptor-alpha expression (ERα protein levels, Western immunoblot)” value is on record as “greatest effect at suppressing estrogen receptor-alpha expression”.
On to `C[C@]12C[C@H](Oc3ccc(NC(=O)CCCCN4CCCCC4)c(F)c3)[C@@H]3c4ccc(O)cc4CC[C@H]3[C@@H]1CC[C@@H]2O` [JD140, N-(4-(((8S,9S,11S,13S,14S,17S)-3,17-Dihydroxy-13-methyl-7,8,9,11,12,13,14,15,16,17-deca-hydro-6H-cyclopenta[a]phenanthren-11-yl)oxy)-2-fluorophenyl)-5-(piperidin-1-yl)pentan-amide], for which the “antiproliferative effects compared with fulvestrant” value in the assay with A549 NSCLC cells (A549, RPMI 1640 with 10% FBS, 1 μM or 10 μM, FIG. 8A) is “significant antiproliferative effects”. Further, the IC50 came out at 0.5 µM with A549 NSCLC cells (setting [8]); 0.64 µM in the assay on A549 NSCLC cells (setting [1]); 1.22 µM in the assay on A549 NSCLC cells (setting [2]); 1.86 µM in the assay with H1975 NSCLC cells (setting [3]); 17.1 µM in the assay on H1975 NSCLC cells (setting [4]); 1.14 µM with H2122 NSCLC cells (setting [5]). Besides, the IC50 stood at 0.03 µM in the assay on H2122 NSCLC cells (setting [6]) and 1.11 µM in the assay with H2122 NSCLC cells (setting [7]). The “estrogen receptor-alpha expression (ERα protein levels, Western immunoblot)” value on estrogen receptor-alpha is recorded as “down-regulated”.
